Results: paper PMC4865845, “A human genome-wide loss-of-function screen identifies effective chikungunya antiviral drugs” (Nature Communications, 2016)

Tested on: CHIKV
Assay type: cell-based, chikungunya virus

Row | Substance | Score_si3 | Score_si4 | also measured
1 | s81 (sense GGATGATTTAGAATTGTCA; chemistry not given here) | 2.08 | – | –
2 | s322 (GGTTGTCCTTGAGTAATAA; chemistry not given here) | – | – | Score_si1: 1.71
3 | s617 (sense GGTCTTGGAGGGAATCCTA; chemistry not given here) | – | – | Score_si2: 1.33
4 | s619 (sense CTGCAGTTGTGGTTGGATA; chemistry not given here) | – | – | Score_si1: 1.92
5 | s915 (CATCCAGTCTGTATACGAA; chemistry not given here) | – | – | Score_si1: 1.9
6 | s916 (GCATCGCAAACTTCACCAA; chemistry not given here) | 1.06 | – | –
7 | s922 (CATTAACATTGTTCGCAAA; chemistry not given here) | – | 1.81 | –
8 | s923 (AATTCAAGCTATGAAGATA; chemistry not given here) | – | – | Score_si2: 1.99
9 | s992 (GTGTTTTTCCGTAAGCATA; chemistry not given here) [reference compound] | -0.52 | – | –
10 | s993 (GGTGCGTCATATGCAGGAA; chemistry not given here) [reference compound] | – | – | Score_si2: -0.55
11 | s994 (GAGGAAGTCCTAAATCACA; chemistry not given here) [reference compound] | – | 1.87 | –
12 | s1522 (sense GGATCAAGCTGCCCATCTA; chemistry not given here) | – | – | Score_si2: 1.17
13 | s1523 (sense CCGGCATCTTTGCTACCTA; chemistry not given here) | – | 0.87 | –
14 | s1698 (CGAACTACACCTTCAGCTA; chemistry not given here) [reference compound] | -0.99 | – | –
15 | s1907 (sense GAACTTAGCTAAATTGACT; chemistry not given here) | – | 0.58 | –
16 | s2529 (sense GCACCCGGTTTATCAGTAA; chemistry not given here) | – | 0.17 | –
17 | s2664 (sense CGTCCATGTTTATCTACAA; chemistry not given here) | – | 0.12 | –
18 | s2665 (sense GCTTCAGGATGTGCCCAAA; chemistry not given here) | 0.58 | – | –
19 | s2822 (sense TGCTGACTTTTAACCCACA; chemistry not given here) | – | 1 | –
20 | s3112 (GGATGAGATTCTAGACTTT; chemistry not given here) | 1.86 | – | –
21 | s3113 (GGCGAGAGGGTATCAAGTA; chemistry not given here) | – | 1.79 | –

Row | Substance | Score_si3 | Score_si4 | also measured
22 | s3114 (GAAGAGCAGTCACAGATCA; chemistry not given here) | – | – | Score_si2: 2.05
23 | s3145 (GACCCTTACCTGGAAGTTT; chemistry not given here) | – | – | Score_si2: 0.19
24 | s3146 (GACCATGGATAATAAGAAA; chemistry not given here) | – | -0.15 | –
25 | s3162 (CATTTCGACTGGATCATAT; chemistry not given here) | – | – | Score_si1: 1.86
26 | s3163 (CTATCTTGGGTTTACCGTA; chemistry not given here) | – | – | Score_si2: 1.54
27 | s3625 (CAGTGAAGCTAGAATCTCA; chemistry not given here) | – | 1.54 | –
28 | s3626 (GAATTTGCGATGTACTTAA; chemistry not given here) | – | – | Score_si2: 1.98
29 | s4917 (sense GTGTATGAGTTTAGAGTCA; chemistry not given here) | – | – | Score_si2: 1.15
30 | s4918 (sense GGCACTTACTATGACAATT; chemistry not given here) | 1.02 | – | –
31 | s5030 (sense GGTATGCGACGGGAAAGTA; chemistry not given here) | 1.75 | – | –
32 | s5031 (sense CCGTGGACCTGATCATCAA; chemistry not given here) | – | – | Score_si2: 2.04
33 | s5032 (sense GGAGCGTATCTGTGAGAAA; chemistry not given here) | – | 1.56 | –
34 | s5082 (sense CCTCGATAATATAACACGA; chemistry not given here) | – | 0.67 | –
35 | s5083 (sense CGTCGTCACTAACAGTCAA; chemistry not given here) | 1.11 | – | –
36 | s5295 (sense CGAGGTCATTGTGCATGAA; chemistry not given here) | – | 0.77 | –
37 | s5296 (sense GCTTCACCATCGAATCCAA; chemistry not given here) | 1.01 | – | –
38 | s5569 (sense AGGCTGAAGCTAATAAGAA; chemistry not given here) | 0.16 | – | –
39 | s5570 (sense TGAACAAGATGGTATCAAA; chemistry not given here) | – | -0.08 | –
40 | s5571 (sense GCAGGACGAGGGTAAAGAA; chemistry not given here) | – | – | Score_si2: 0.56
41 | s6097 (sense TCAGGACCCTGTACACCCA; chemistry not given here) | – | 0.9 | –
42 | s6098 (sense CCTTTAACGTGGACATGTA; chemistry not given here) | – | – | Score_si1: 1.88

Row | Substance | Score_si3 | Score_si4 | also measured
43 | s6126 (sense GAATGCTCCTTTACCAGAA; chemistry not given here) | – | – | Score_si2: 0.75
44 | s6350 (sense GCCCATATACATTCTGCAA; chemistry not given here) [reference compound] | – | -0.73 | –
45 | s6670 (sense CAACAGGAGGAAGACTTTA; chemistry not given here) | – | -0.15 | –
46 | s6671 (sense CAACGAAAATCTAAATGCA; chemistry not given here) | – | – | Score_si2: 0.2
47 | s6672 (sense GACTAATGAACTACTAAAA; chemistry not given here) | 0.16 | – | –
48 | s7005 (sense AGAAAAATCTCAAGGAAAA; chemistry not given here) | 1.86 | – | –
49 | s7007 (sense GGATCGGGTTCTAAAGGAA; chemistry not given here) | – | – | Score_si2: 1.87
50 | s7586 (sense CCTACTGTCTGGTAGCGAT; chemistry not given here) | – | – | Score_si2: 1.49
51 | s8004 (sense GTGGAGGAATGGTTCAATA; chemistry not given here) | 0.87 | – | –
52 | s8005 (sense CCATGACTCCTGACTACCA; chemistry not given here) | – | 0.75 | –
53 | s8261 (sense GGGTGGAGGTGTACTATGA; chemistry not given here) | 0.99 | – | –
54 | s8290 (sense GGTGCTAACCGGATAGTAT; chemistry not given here) | – | 0.74 | –
55 | s8292 (sense GGATTGTTATCCGACTGAA; chemistry not given here) | 1.63 | – | –
56 | s8322 (GGTCGGAGATTTGCAAGGA; chemistry not given here) | 1.44 | – | –
57 | s8324 (GCTGGGAAGGGATACCACA; chemistry not given here) | – | – | Score_si1: 1.92
58 | s8541 (CAATCTCCGGAGGCACGAA; chemistry not given here) | 0.12 | – | –
59 | s8542 (AGGTTTTAACGATTTGTTT; chemistry not given here) | – | – | Score_si2: 0.14
60 | s8543 (CCTCAACAGTCACGTCAGA; chemistry not given here) | – | -0.08 | –
61 | s9030 (CATCTGGAATTAACTGGAT; chemistry not given here) | 1.53 | – | –
62 | s9031 (CGACGACAGCTACTGGTTT; chemistry not given here) | – | 0.9 | –
63 | s9324 (ACAACTTCAGTGCTGATCA; chemistry not given here) | 0.83 | – | –
